This test has as its system P388 leukemia ip, CD2F1 mice, survival T/C. In words: NCI In Vivo Anticancer Drug Screen. Data for tumor model P388 Leukemia (intraperitoneal) in CD2F1 (CDF1) mice. The conditions noted are these: endpoint: median survival time, higher = longer survival. The method in brief:
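Mice carrying the transplanted tumor received test compound or vehicle. Survival was recorded in each group, and the value is the treated-group measurement divided by that of the vehicle-treated control group.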

Results on 15 molecules are retold here after PubChem BioAssay AID330 (DTP/NCI, 2004).

Each structure is given as a SMILES string. “And” between values parts separate entries of the source, which are not always exact repeats. Equal values may be shown once. Toxic doses and inconclusive results are not listed.

For `C=C(C)[C@@]12OC3(/C=C/C=C/CCCCC)O[C@@H]1[C@@H]1[C@@H]4O[C@]4(CO)[C@@H](O)[C@]4(O)C(=O)C(C)=C[C@H]4[C@@]1(O3)[C@H](C)[C@H]2OC(=O)c1ccccc1`, the T/C was 120 % of control (dose: 0.1 mg/kg/injection, schedule: Q01DX009 (ip), vehicle: saline + alcohol); 155 % of control (dose: 1.6 mg/kg/injection, schedule: Q01DX009 (ip), vehicle: saline + alcohol); 101 % of control (dose: 0.8 micrograms/kg/injection, schedule: Q01DX009 (ip), vehicle: saline + alcohol); 101 % of control (dose: 1.6 micrograms/kg/injection, schedule: Q01DX009 (ip), vehicle: saline + alcohol); 97 % of control (dose: 2.3 micrograms/kg/injection, schedule: Q01DX009 (ip), vehicle: saline + alcohol); 119 % of control (dose: 3.1 micrograms/kg/injection, schedule: Q01DX009 (ip), vehicle: saline + alcohol). Moreover, the T/C was 100 % of control (dose: 4.7 micrograms/kg/injection, schedule: Q01DX009 (ip), vehicle: saline + alcohol); 97 % of control (dose: 9.4 micrograms/kg/injection, schedule: Q01DX009 (ip), vehicle: saline + alcohol); 95 % of control (dose: 18.8 micrograms/kg/injection, schedule: Q01DX009 (ip), vehicle: saline + alcohol); 100 % of control (dose: 37.5 micrograms/kg/injection, schedule: Q01DX009 (ip), vehicle: saline + alcohol); 119 % of control (dose: 75.0 micrograms/kg/injection, schedule: Q01DX009 (ip), vehicle: saline + alcohol); 114 % of control (dose: 150.0 micrograms/kg/injection, schedule: Q01DX009 (ip), vehicle: saline + alcohol).

In the case of `CCCC(C)C(CC)C(=O)NC(N)=O` (stereo unspecified), the T/C was 101 % of control (dose: 12.5 mg/kg/injection, schedule: Q01DX009 (ip), vehicle: Klucel (hydroxypropylcellulose) (HPC)); 102 % of control (dose: 25.0 mg/kg/injection, schedule: Q01DX009 (ip), vehicle: Klucel (hydroxypropylcellulose) (HPC)); 98 % of control (dose: 50.0 mg/kg/injection, schedule: Q01DX009 (ip), vehicle: Klucel (hydroxypropylcellulose) (HPC)); 101 % of control (dose: 100.0 mg/kg/injection, schedule: Q01DX009 (ip), vehicle: Klucel (hydroxypropylcellulose) (HPC)).

With `CN(C)CCCNc1nc(-c2cccc(C(Cl)(Cl)Cl)c2)nc(C(Cl)(Cl)Cl)n1`, the T/C runs as follows: (dose: 25.0 mg/kg/injection, schedule: Q01DX009 (ip), vehicle: saline with Tween-80) 109 % of control; (dose: 50.0 mg/kg/injection, schedule: Q01DX009 (ip), vehicle: saline with Tween-80) 111 % of control.

`NNC(=O)c1cnn(-c2ccc(N(CCO)CCO)nn2)c1N`: the T/C by setting is: (dose: 75.0 mg/kg/injection, schedule: Q01DX005 (ip), vehicle: other) 107 % of control; (dose: 150.0 mg/kg/injection, schedule: Q01DX005 (ip), vehicle: other) 107 % of control; (dose: 250.0 mg/kg/injection, schedule: Q01DX005 (oral), vehicle: water) 104 % of control; (dose: 300.0 mg/kg/injection, schedule: Q01DX005 (ip), vehicle: other) 93 % of control; (dose: 500.0 mg/kg/injection, schedule: Q01DX005 (oral), vehicle: water) 110 % of control; (dose: 1000.0 mg/kg/injection, schedule: Q01DX005 (oral), vehicle: water) 103 % of control.

`Cc1c(-c2ccccc2)oc(=O)c(Cl)c1N(C)C`: the T/C is 102 % of control (dose: 50.0 mg/kg/injection, schedule: Q01DX005 (ip), vehicle: saline with Tween-80); 100 % of control (dose: 100.0 mg/kg/injection, schedule: Q01DX005 (ip), vehicle: saline with Tween-80); 100 % of control (dose: 200.0 mg/kg/injection, schedule: Q01DX005 (ip), vehicle: saline with Tween-80).

For the molecule `CC(=O)Oc1c(C)c(C)c2c(c1C)C(I)CC(C)(CCC(C)CCC(C)CCC(C)C)O2` (stereo unspecified), the T/C is 103 % of control (dose: 12.5 mg/kg/injection, schedule: Q01DX009 (ip), vehicle: saline + Tween-80 + alcohol); 113 % of control (dose: 25.0 mg/kg/injection, schedule: Q01DX009 (ip), vehicle: saline + Tween-80 + alcohol); 107 % of control (dose: 50.0 mg/kg/injection, schedule: Q01DX009 (ip), vehicle: saline + Tween-80 + alcohol); 106 % of control (dose: 100.0 mg/kg/injection, schedule: Q01DX009 (ip), vehicle: saline + Tween-80 + alcohol); 119 % of control (dose: 200.0 mg/kg/injection, schedule: Q01DX009 (ip), vehicle: saline + Tween-80 + alcohol); 87 % of control (dose: 400.0 mg/kg/injection, schedule: Q01DX009 (ip), vehicle: saline + Tween-80 + alcohol).

`Cc1ccc2c(c1)Sc1ccc3ccccc3c1N2`: the T/C is, setting by setting: (dose: 100.0 mg/kg/injection, schedule: Q01DX009 (ip), vehicle: saline with Tween-80) 100 % of control; (dose: 100.0 mg/kg/injection, schedule: Q04DX003 (ip), vehicle: saline with Tween-80) 90 % of control; (dose: 200.0 mg/kg/injection, schedule: Q01DX009 (ip), vehicle: saline with Tween-80) 109 % of control; (dose: 200.0 mg/kg/injection, schedule: Q04DX003 (ip), vehicle: saline with Tween-80) 100 % of control; (dose: 400.0 mg/kg/injection, schedule: Q01DX009 (ip), vehicle: saline with Tween-80) 113 % of control; (dose: 400.0 mg/kg/injection, schedule: Q04DX003 (ip), vehicle: saline with Tween-80) 100 % of control.

Turning to `COc1ccc(Br)c(C(=O)O)c1OS(=O)(=O)c1ccc(C)cc1`, the T/C runs as follows: (dose: 25.0 mg/kg/injection, schedule: Q01DX009 (ip), vehicle: other) 106 % of control; (dose: 50.0 mg/kg/injection, schedule: Q01DX009 (ip), vehicle: other) 105 % of control; (dose: 100.0 mg/kg/injection, schedule: Q01DX009 (ip), vehicle: other) 100 % of control; (dose: 200.0 mg/kg/injection, schedule: Q01DX009 (ip), vehicle: other) 105 % of control; (dose: 400.0 mg/kg/injection, schedule: Q01DX009 (ip), vehicle: other) 108 % of control.

For the molecule `N#CCCNCCC[Si]12OCCN(CCO1)CCO2`, the T/C by setting is: (dose: 50.0 mg/kg/injection, schedule: Q01DX005 (ip), vehicle: Klucel (hydroxypropylcellulose) (HPC)) 97 % of control; (dose: 100.0 mg/kg/injection, schedule: Q01DX005 (ip), vehicle: Klucel (hydroxypropylcellulose) (HPC)) 100 % of control; (dose: 200.0 mg/kg/injection, schedule: Q01DX005 (ip), vehicle: Klucel (hydroxypropylcellulose) (HPC)) 101 % of control and 103 % of control.

As to `c1ccc2c(c1)oc1cc3c(cc12)ncc1cccn13`, the T/C (dose: 1.56 mg/kg/injection, schedule: Q01DX005 (ip), vehicle: saline with Tween-80) was 103 % of control; the T/C (dose: 3.12 mg/kg/injection, schedule: Q01DX005 (ip), vehicle: saline with Tween-80) was 100 % of control; the T/C (dose: 6.25 mg/kg/injection, schedule: Q01DX005 (ip), vehicle: saline with Tween-80) was 97 % of control; the T/C (dose: 12.5 mg/kg/injection, schedule: Q01DX005 (ip), vehicle: saline with Tween-80) was 90 % of control.

In the case of `CN(C)c1ccc(C2NC(C(=O)O)CS2)cc1` (stereo unspecified), the T/C (dose: 50.0 mg/kg/injection, schedule: Q01DX009 (ip), vehicle: suspension in saline) is 91 % of control; the T/C (dose: 100.0 mg/kg/injection, schedule: Q01DX009 (ip), vehicle: suspension in saline) was 100 % of control; the T/C (dose: 200.0 mg/kg/injection, schedule: Q01DX009 (ip), vehicle: suspension in saline) is 100 % of control.

For the molecule `NS(=O)(=O)c1ccc(N=NC2C(=O)N(c3ccc(Cl)cc3)C(=S)N(c3ccc(Cl)cc3)C2=O)cc1`, the T/C (dose: 12.5 mg/kg/injection, schedule: Q01DX005 (ip), vehicle: saline) was 100 % of control; the T/C (dose: 25.0 mg/kg/injection, schedule: Q01DX005 (ip), vehicle: saline) is 100 % of control; the T/C (dose: 50.0 mg/kg/injection, schedule: Q01DX005 (ip), vehicle: saline) is 108 % of control and 118 % of control.

`CC[CH2][Pb]([CH2]CC)([CH2]CC)[O]C(=O)C1CCCCC1`: the T/C is, setting by setting: (dose: 1.25 mg/kg/injection, schedule: Q01DX009 (ip), vehicle: saline with Tween-80) 105 % of control and 97 % of control; (dose: 2.5 mg/kg/injection, schedule: Q01DX009 (ip), vehicle: saline with Tween-80) 111 % of control and 122 % of control; (dose: 5.0 mg/kg/injection, schedule: Q01DX009 (ip), vehicle: saline with Tween-80) 122 % of control; (dose: 10.0 mg/kg/injection, schedule: Q01DX009 (ip), vehicle: saline with Tween-80) 114 % of control.

For the molecule `COc1ccc(C2C3=C(CCC(CN(C)C)C3=O)OC3=C2C(=O)C(CN(C)C)CC3)cc1` (stereo unspecified), the T/C is 102 % of control (dose: 60.0 mg/kg/injection, schedule: Q01DX005 (ip), vehicle: saline) and 102 % of control (dose: 120.0 mg/kg/injection, schedule: Q01DX005 (ip), vehicle: saline).

For the molecule `C[As+](C)(C)CC(=O)O`, the T/C (dose: 50.0 mg/kg/injection, schedule: Q01DX009 (ip), vehicle: saline) was 99 % of control; the T/C (dose: 100.0 mg/kg/injection, schedule: Q01DX009 (ip), vehicle: saline) is 99 % of control; the T/C (dose: 200.0 mg/kg/injection, schedule: Q01DX009 (ip), vehicle: saline) was 101 % of control.
